From patent US9617602B2, “Methods and compositions for determining resistance to androgen receptor therapy” (Aragon Pharmaceuticals, Inc., priority 2012, dated 2017)

Columns and labels:
Type in all cases: cell-based, human
LNCaP/AR(cs) cells [1] = experiment: Proliferation assay (CellTiter-Glo), agonist and antagonist mode
[2] = system: Class 1 ARN-509- and MDV3100-resistant cell lines; experiment: as above
LNCaP cells [3] = experiment: as above
[4] = system: Class 2 MDV3100- and ARN-509-resistant cell lines; experiment: as above
LNCaP/AR(cs) cells [5] = experiment: Transcriptional reporter assay (probasin-luciferase)
Procedure: (§1) With the exception of the LNCaP/AR(cs)-Luc cells that contain an integrated androgen responsive reporter, cells were transiently transfected using Lipofectin® (Life Technologies) according to the manufacturer's protocol. […] Following transfection, the cells were incubated for 4 hours.
(§2) Following 48 hour incubation the medium was removed and the cells were lysed in 40 μL of lysis buffer (25 mM Tris Phosphate, 2 mM CDTA, 10% Glycerol, 0.5% Triton X-100, 2 mM DTT).

[6] = system: Class 1 resistant cell lines; experiment: as above; settings: Class 1
Procedure: as §1, §2

[7] = system: Class 2 resistant cell lines; experiment: as above; settings: Class 2
Procedure: as §1, §2

LNCaP cells [8] = experiment: as above
Procedure: as §1, §2

[9] = Homo sapiens, 168 h, read-out: Antagonist Proliferation Assay (% Viability)
[10] = [Antagonists] = 50 μM in presence of R1881

## CC(O)(CS(=O)(=O)c1ccc(F)cc1)C(=O)Nc1ccc(C#N)c(C(F)(F)F)c1 (stereo not shown) [Bicalutamide, bicalutamide]
LNCaP/AR(cs) cells [1]; Homo sapiens, LNCaP/AR, 168 h, read-out: Antagonist Proliferation Assay (% Viability)
  viability at 0.0001 µM: < 30%
LNCaP/AR(cs) cells [1]; LNCaP/AR(cs), [Antagonists] = 10 μM, 7 days
  Agonist Proliferation Assay (% Viability): + (‘+’ = <30)
[2]; Class 1, [Antagonists] = 10 μM, 7 days
  Agonist Proliferation Assay (% Viability): ++ (‘++’ = >30)
[2]; [9]
  viability at 0.0001 µM: > 30%
LNCaP cells [3]; [9]
  viability at 0.0001 µM: < 30%
LNCaP cells [3]; [Antagonists] = 10 μM, 7 days
  Agonist Proliferation Assay (% Viability): + (‘+’ = <30)
[4]; Class 2, [Antagonists] = 10 μM, 7 days
  Agonist Proliferation Assay (% Viability): + (‘+’ = <30)
[4]; [9]
  viability at 0.0001 µM: > 30%
LNCaP/AR(cs) cells [5]; [Antagonists] = 50 μM
  Agonist Transcriptional Reporter Assay (% Max Activity): + (‘+’ = <5)
LNCaP/AR(cs) cells [5]; [10]
  Antagonist Transcriptional Reporter Assay (% Max Activity): + (‘+’ = <5)
[6]; [Antagonists] = 50 μM
  Agonist Transcriptional Reporter Assay (% Max Activity): ++ (‘++’ = >5)
[6]; [10]
  Antagonist Transcriptional Reporter Assay (% Max Activity): ++ (‘++’ = >5)
[7]; [Antagonists] = 50 μM
  Agonist Transcriptional Reporter Assay (% Max Activity): + (‘+’ = <5)
[7]; [10]
  Antagonist Transcriptional Reporter Assay (% Max Activity): + (‘+’ = <5)
LNCaP cells [8]; [Antagonists] = 50 μM
  Agonist Transcriptional Reporter Assay (% Max Activity): + (‘+’ = <5)
LNCaP cells [8]; [10]
  Antagonist Transcriptional Reporter Assay (% Max Activity): + (‘+’ = <5)
